Measurements as given in ChEMBL document CHEMBL3856212, “Synthesis, anti-proliferative and genotoxicity studies of 6-chloro-5-(2-substituted-ethyl)-1,3-dihydro-2H-indol-2-ones and 6-chloro-5-(2-chloroethyl)-3-(alkyl/ary-2-ylidene)indolin-2-ones” (Eur J Med Chem, 2016).

Tests used:
Assay type in all cases: functional
[1] = Cytotoxicity against human 786-0 cells assessed as growth inhibition after 48 hrs by SRB assay; conditions: 786-0, 48 h; for CC50: read-out: LD50 (the source's name)
[2] = Cytotoxicity against human SF268 cells assessed as growth inhibition after 48 hrs by SRB assay; conditions: SF-268, 48 h; for CC50: read-out: LD50 (the source's name)
[3] = Cytotoxicity against human EKVX cells assessed as assessed as growth inhibition at 10^-5 M after 48 hrs by SRB assay relative to control; conditions: read-out: GI
[4] = Cytotoxicity against human Hs 578T cells assessed as assessed as growth inhibition at 10^-5 M after 48 hrs by SRB assay relative to control; conditions: read-out: GI
[5] = Cytotoxicity against human A498 cells assessed as growth inhibition after 48 hrs by SRB assay; conditions: A498, 48 h; for CC50: read-out: LD50 (the source's name)
[6] = Cytotoxicity against human PC3 cells assessed as growth inhibition after 48 hrs by SRB assay; conditions: PC-3, 48 h; for CC50: read-out: LD50 (the source's name)
[7] = Cytotoxicity against human MDA-MB-468 cells assessed as growth inhibition after 48 hrs by SRB assay; conditions: MDA-MB-468, 48 h; for CC50: read-out: LD50 (the source's name)
[8] = Cytotoxicity against human MDA-MB-468 cells assessed as assessed as growth inhibition at 10^-5 M after 48 hrs by SRB assay relative to control; conditions: MDA-MB-468, 48 h, read-out: GI
[9] = Cytotoxicity against human HCT15 cells assessed as growth inhibition after 48 hrs by SRB assay; conditions: HCT-15, 48 h; for CC50: read-out: LD50 (the source's name)
[10] = Cytotoxicity against human OVCAR3 cells assessed as assessed as growth inhibition at 10^-5 M after 48 hrs by SRB assay relative to control; conditions: OVCAR-3, 48 h, read-out: GI
[11] = Cytotoxicity against human Hs 578T cells assessed as growth inhibition after 48 hrs by SRB assay; conditions: for CC50: read-out: LD50 (the source's name)
[12] = Cytotoxicity against human ACHN cells assessed as growth inhibition after 48 hrs by SRB assay; conditions: for CC50: read-out: LD50 (the source's name)
[13] = Cytotoxicity against human A549 cells assessed as growth inhibition after 48 hrs by SRB assay; conditions: A549, 48 h; for CC50: read-out: LD50 (the source's name)
[14] = Cytotoxicity against human U251 cells assessed as growth inhibition after 48 hrs by SRB assay; conditions: U-251, 48 h; for CC50: read-out: LD50 (the source's name)
[15] = Cytotoxicity against human NCI-H226 cells assessed as assessed as growth inhibition at 10^-5 M after 48 hrs by SRB assay relative to control; conditions: NCI-H226, 48 h, read-out: GI
[16] = Cytotoxicity against human SF268 cells assessed as assessed as growth inhibition at 10^-5 M after 48 hrs by SRB assay relative to control; conditions: SF-268, 48 h, read-out: GI
[17] = Cytotoxicity against human OVCAR4 cells assessed as assessed as growth inhibition at 10^-5 M after 48 hrs by SRB assay relative to control; conditions: OVCAR-4, 48 h, read-out: GI
[18] = Cytotoxicity against human K562 cells assessed as growth inhibition after 48 hrs by SRB assay; conditions: K562, 48 h; for CC50: read-out: LD50 (the source's name)
[19] = Cytotoxicity against human NCI-H23 cells assessed as growth inhibition after 48 hrs by SRB assay; conditions: NCI-H23, 48 h; for CC50: read-out: LD50 (the source's name)
[20] = Cytotoxicity against human NCI-ADR-RES cells assessed as assessed as growth inhibition at 10^-5 M after 48 hrs by SRB assay relative to control; conditions: read-out: GI
[21] = Cytotoxicity against human UACC62 cells assessed as growth inhibition after 48 hrs by SRB assay; conditions: UACC-62, 48 h; for CC50: read-out: LD50 (the source's name)
[22] = Cytotoxicity against human SK-MEL-28 cells assessed as assessed as growth inhibition at 10^-5 M after 48 hrs by SRB assay relative to control; conditions: SK-MEL-28, 48 h, read-out: GI
[23] = Cytotoxicity against human SW620 cells assessed as growth inhibition after 48 hrs by SRB assay; conditions: SW-620, 48 h; for CC50: read-out: LD50 (the source's name)
[24] = Cytotoxicity against human SNB19 cells assessed as assessed as growth inhibition at 10^-5 M after 48 hrs by SRB assay relative to control; conditions: SNB-19, 48 h, read-out: GI
[25] = Cytotoxicity against human MCF7 cells assessed as growth inhibition after 48 hrs by SRB assay; conditions: MCF7, 48 h; for CC50: read-out: LD50 (the source's name)
[26] = Cytotoxicity against human OVCAR5 cells assessed as assessed as growth inhibition at 10^-5 M after 48 hrs by SRB assay relative to control; conditions: OVCAR-5, 48 h, read-out: GI
[27] = Cytotoxicity against human OVCAR4 cells assessed as growth inhibition after 48 hrs by SRB assay; conditions: OVCAR-4, 48 h; for CC50: read-out: LD50 (the source's name)
[28] = Cytotoxicity against human HCT116 cells assessed as growth inhibition after 48 hrs by SRB assay; conditions: HCT-116, 48 h; for CC50: read-out: LD50 (the source's name)
[29] = Cytotoxicity against human T47D cells assessed as assessed as growth inhibition at 10^-5 M after 48 hrs by SRB assay relative to control; conditions: read-out: GI
[30] = Cytotoxicity against human NCI-H322M cells assessed as assessed as growth inhibition at 10^-5 M after 48 hrs by SRB assay relative to control; conditions: read-out: GI
[31] = Cytotoxicity against human IGROV1 cells assessed as assessed as growth inhibition at 10^-5 M after 48 hrs by SRB assay relative to control; conditions: IGROV-1, 48 h, read-out: GI
[32] = Cytotoxicity against human SN12C cells assessed as growth inhibition after 48 hrs by SRB assay; conditions: for CC50: read-out: LD50 (the source's name)
[33] = Cytotoxicity against human M14 cells assessed as growth inhibition after 48 hrs by SRB assay; conditions: M14, 48 h; for CC50: read-out: LD50 (the source's name)
[34] = Cytotoxicity against human HL-60(TB) cells assessed as growth inhibition after 48 hrs by SRB assay; conditions: HL-60, 48 h; for CC50: read-out: LD50 (the source's name)

SMILES: O=C1Cc2cc(CCn3ccnc3)c(Cl)cc2N1
- GI50 [1]: 1 µM
- TGI [1]: > 1 µM
- CC50 [1]: > 1 µM
- GI50 [2]: 1.21 µM
- TGI [2]: > 1 µM
- CC50 [2]: > 1 µM
- inhibition of growth at 10 µM [3]: 72.7%
- inhibition of growth at 10 µM [4]: 68.9%
- GI50 [5]: 2.19 µM
- TGI [5]: 6.11 µM
- CC50 [5]: > 1 µM
- GI50 [6]: 3.56 µM
- TGI [6]: > 1 µM
- CC50 [6]: > 1 µM
- GI50 [7]: 2.74 µM
- TGI [7]: > 1 µM
- CC50 [7]: > 1 µM
- inhibition of growth at 10 µM [8]: 69.2%
- GI50 [9]: 7.07 µM
- TGI [9]: > 1 µM
- CC50 [9]: > 1 µM
- inhibition of growth at 10 µM [10]: 36.5%
- GI50 [11]: 8.73 µM
- TGI [11]: 9.92 µM
- CC50 [11]: > 1 µM
- GI50 [12]: 2.03 µM
- TGI [12]: > 1 µM
- CC50 [12]: > 1 µM
- GI50 [13]: 7.63 µM
- TGI [13]: > 1 µM
- CC50 [13]: > 1 µM
- GI50 [14]: 8.24 µM
- TGI [14]: > 1 µM
- CC50 [14]: > 1 µM
- inhibition of growth at 10 µM [15]: 10.7%
- inhibition of growth at 10 µM [16]: 27.6%
- inhibition of growth at 10 µM [17]: 2.81%
- GI50 [18]: 8.26 µM
- TGI [18]: > 1 µM
- CC50 [18]: > 1 µM
- GI50 [19]: 4.08 µM
- TGI [19]: > 1 µM
- CC50 [19]: > 1 µM
- inhibition of growth at 10 µM [20]: 54.3%
- GI50 [21]: 7.68 µM
- TGI [21]: > 1 µM
- CC50 [21]: > 1 µM
- inhibition of growth at 10 µM [22]: 32.2%
- GI50 [23]: 5.02 µM
- TGI [23]: > 1 µM
- CC50 [23]: > 1 µM
- inhibition of growth at 10 µM [24]: 28.5%
- GI50 [25]: 4.12 µM
- TGI [25]: > 1 µM
- CC50 [25]: > 1 µM
- inhibition of growth at 10 µM [26]: 18.9%
- GI50 [27]: 4.5 µM
- TGI [27]: > 1 µM
- CC50 [27]: > 1 µM
- GI50 [28]: 1.31 µM
- TGI [28]: > 1 µM
- CC50 [28]: > 1 µM
- inhibition of growth at 10 µM [29]: 5.51%
- inhibition of growth at 10 µM [30]: 9.68%
- inhibition of growth at 10 µM [31]: 13.3%
- GI50 [32]: 1.65 µM
- TGI [32]: > 1 µM
- CC50 [32]: > 1 µM
- GI50 [33]: 3.46 µM
- TGI [33]: 3.98 µM
- CC50 [33]: > 1 µM
- GI50 [34]: 6.32 µM
- TGI [34]: > 1 µM
- CC50 [34]: > 1 µM

SMILES: O=C1Cc2cc(CCN3CCNCC3)c(Cl)cc2N1
- GI50 [1]: 1 µM
- TGI [1]: > 1 µM
- CC50 [1]: > 1 µM
- GI50 [2]: 1.27 µM
- TGI [2]: > 1 µM
- CC50 [2]: > 1 µM
- inhibition of growth at 10 µM [3]: 75.2%
- inhibition of growth at 10 µM [4]: 69.9%
- GI50 [5]: 2.85 µM
- TGI [5]: > 1 µM
- CC50 [5]: > 1 µM
- GI50 [6]: 9.83 µM
- TGI [6]: > 1 µM
- CC50 [6]: > 1 µM
- GI50 [7]: 2.24 µM
- TGI [7]: 7.42 µM
- CC50 [7]: > 1 µM
- inhibition of growth at 10 µM [8]: 89%
- GI50 [9]: 6.23 µM
- TGI [9]: > 1 µM
- CC50 [9]: > 1 µM
- inhibition of growth at 10 µM [10]: 17.2%
- GI50 [11]: 1.57 µM
- TGI [11]: > 1 µM
- CC50 [11]: > 1 µM
- GI50 [12]: 1 µM
- TGI [12]: > 1 µM
- CC50 [12]: > 1 µM
- GI50 [13]: 6.85 µM
- TGI [13]: > 1 µM
- CC50 [13]: > 1 µM
- GI50 [14]: 7.79 µM
- TGI [14]: > 1 µM
- CC50 [14]: > 1 µM
- inhibition of growth at 10 µM [15]: 19.4%
- inhibition of growth at 10 µM [16]: 27.9%
- inhibition of growth at 10 µM [17]: 19%
- GI50 [18]: 6.24 µM
- TGI [18]: > 1 µM
- CC50 [18]: > 1 µM
- GI50 [19]: 4.64 µM
- TGI [19]: > 1 µM
- CC50 [19]: > 1 µM
- inhibition of growth at 10 µM [20]: 51.6%
- GI50 [21]: 6.54 µM
- TGI [21]: > 1 µM
- CC50 [21]: > 1 µM
- inhibition of growth at 10 µM [22]: 42.2%
- GI50 [23]: 4.97 µM
- TGI [23]: > 1 µM
- CC50 [23]: > 1 µM
- inhibition of growth at 10 µM [24]: 42.4%
- GI50 [25]: 3.65 µM
- TGI [25]: > 1 µM
- CC50 [25]: > 1 µM
- inhibition of growth at 10 µM [26]: 34.7%
- GI50 [27]: 8.78 µM
- TGI [27]: > 1 µM
- CC50 [27]: > 1 µM
- GI50 [28]: 1 µM
- TGI [28]: > 1 µM
- CC50 [28]: > 1 µM
- inhibition of growth at 10 µM [29]: 17.3%
- inhibition of growth at 10 µM [30]: 19.3%
- inhibition of growth at 10 µM [31]: 11%
- GI50 [32]: 6 µM
- TGI [32]: > 1 µM
- CC50 [32]: > 1 µM
- GI50 [33]: 3.02 µM
- TGI [33]: 2.65 µM
- CC50 [33]: > 1 µM
- GI50 [34]: 4.3 µM
- TGI [34]: > 1 µM
- CC50 [34]: > 1 µM
